According to paper PMC11435438, “Cyclin-Dependent Kinase 8 Represents a Positive Regulator of Cytomegalovirus Replication and a Novel Host Target for Antiviral Strategies” (Pharmaceutics, 2024):

The molecules below were run on MHV-68-Luc (assay: MHV-68 replication assay in Vero cells). Details: Murine herpesvirus, read-out: EC50 MHV-68.
Type: cell-based, murine herpesvirus 68
Procedure: (§1) Primary human foreskin fibroblasts (HFFs; obtained from clinical samples at Children’s Hospital in Erlangen, Germany), guinea pig embryonic fibroblasts (GPEFs; generously provided by Mark R. Schleiss from the University of Minnesota in Minneapolis, MN, USA), and rat embryonic fibroblasts were cultivated in Eagle’s Minimal Essential Medium (MEM) supplemented with 1 × GlutaMAX™ (both from Thermo Fisher Scientific, Waltham, MA, USA), 10 µg/mL gentamicin, and 10% fetal bovine serum (FBS; Capricorn, Ebsdorfergrund, Germany). Human glioblastoma–astrocytoma cell line (U373) and mouse embryonic fibroblasts (MEFs), both obtained from ATCC (Manassas, VA, USA), and Vero cell sublineage 76 [26], were cultivated in Dulbecco’s modified Eagle’s medium (DMEM) supplemented with 1 × GlutaMAX™, 10 µg/mL gentamicin, and 10% fetal bovine serum. All cultured cells were maintained under the conditions of 37 °C temperature, 5% CO2, and 80% humidity. The regular monitoring for the absence of mycoplasma contamination was conducted using Lonza™ Mycoalert™ (Thermo Fisher Scientific, Waltham, MA, USA). Cultured cell-based viral replication assays were performed by the use of the HCMV strain AD169 (variant U.K.), the recombinant HCMVs AD169-GFP expressing green fluorescent protein [27], TB40 IE2-YFP and TB40-FLuc expressing an IE2-YFP fusion protein or firefly luciferase (FLuc), and Merlin-GFP [31]. […]
(§2) A variety of antiherpesviral and non-herpesviral drug activities were assessed by the cell culture-based viral replication systems, as described elsewhere. […] After incubation at 37 °C for 3 days, iSLK.219 cells were fixed with 10% formalin, washed with PBS, and used for a quantitation of RFP reporter signal by PicoMD counting (ImageXpress® Pico device, Molecular Devices LLC, San Jose, CA, USA). […]
Molecule `Cc1n[nH]c2ncc(C(=O)N3CCC[C@H]3c3ccc(Cl)cc3)cc12` [MSC-2530818] has an EC50 of 2.5 ± 3 nM. Molecule `CN(C)C(=O)Cn1cc(-c2ccc(-c3cncc4ccccc34)cc2)cn1` [BI-1347] has an EC50 of 0.8 ± 1 nM. In the case of `Cn1ncc2cc(-c3cnc(N)c(Cl)c3N3CCC4(CCNC4=O)CC3)ccc21` [CCT-151921], the EC50 is reported as 22 ± 19 nM.

What follows are molecules tested on HHV-6A-GFP (assay: HHV-6A replication assay in J-Jhan cells). Details: Homo sapiens, read-out: EC50 HHV-6A.
Type: cell-based, human herpesvirus type 6A
Procedure: as §1, §2
For `Cc1n[nH]c2ncc(C(=O)N3CCC[C@H]3c3ccc(Cl)cc3)cc12` [MSC-2530818], the EC50 was > 50000 nM. With `CN(C)C(=O)Cn1cc(-c2ccc(-c3cncc4ccccc34)cc2)cn1` [BI-1347] the EC50 was > 50000 nM. `Cn1ncc2cc(-c3cnc(N)c(Cl)c3N3CCC4(CCNC4=O)CC3)ccc21` [CCT-151921] gave an EC50 of 39000 ± 21000 nM.

Each molecule was assayed on ChCMV strain Herberling (assay: ChCMV replication assay in HFFs (immunofluorescence)). Details: in Pan troglodytes, n = 2.
Type: cell-based, chimpanzee cytomegalovirus
Text: (§3) Similarly, 2 × 10^4 primary embryonic guinea pig fibroblasts GPEFs/96-well, or 1.35 × 10^4 HFFs/96-well, or 2 × 10^4 rat REFs/96-well, or 2 × 10^4 murine MEFs/96-well, were cultivated for infection with GPCMV-GFP, RhCMV-GFP, ChCMV, RCMV-mCherry, or MCMV-GFP, respectively (all approx. MOI of 0.01 referring to 1 × TCID25), and were used for the assessment of antiviral drug activity. To this end, cells were fixed 7 d p.i. (RCMV-mCherry 4 d p.i.), before GFP or mCherry expression was quantified using the Victor X4 microplate reader, or other viral replication markers were measured as explained for the individual experiments. ChCMV replication in HFFs was monitored and quantified by the use of Anti-Cytomegalovirus Antibody Alexa Fluor™ 488. For immunofluorescence staining with Anti-Cytomegalovirus Antibody Alexa Fluor™ 488 (Sigma Aldrich, St. Louis, MO, USA; solution in PBS with 1% FCS), the infected cells were fixed at 7 d p.i. with 10% formalin and permeabilized with 0.2% Triton-x-100. Cell nuclei were counterstained using Höchst dye to be measured using the ImageXpress Pico (Molecular Devices, LLC, San Jose, CA, USA). Mean EC50 values of antiviral efficacy were calculated on the basis of three experimental replicates or as indicated (measurement of fluorescence values in quadruplicate), and percentage values were provided relative to the solvent control (DMSO).
`Cc1n[nH]c2ncc(C(=O)N3CCC[C@H]3c3ccc(Cl)cc3)cc12` [MSC-2530818] was tested, and the EC50 was 21 ± 26.5 nM. Work on `CN(C)C(=O)Cn1cc(-c2ccc(-c3cncc4ccccc34)cc2)cn1` [BI-1347] yielded an EC50 of 11.6 ± 22.6 nM. Work on `Cn1ncc2cc(-c3cnc(N)c(Cl)c3N3CCC4(CCNC4=O)CC3)ccc21` [CCT-151921] yielded an EC50 of 31 ± 18 nM.

Each molecule was assayed on RhCMV-GFP (assay: RhCMV-GFP replication assay in HFFs). Details: in Macaca mulatta, read-out: EC50 RhCMV.
Type: cell-based, rhesus cytomegalovirus
Text: as §3
`Cc1n[nH]c2ncc(C(=O)N3CCC[C@H]3c3ccc(Cl)cc3)cc12` [MSC-2530818] gave an EC50 of 2.17 ± 1.37 nM. `CN(C)C(=O)Cn1cc(-c2ccc(-c3cncc4ccccc34)cc2)cn1` [BI-1347] gave an EC50 of 0.4 ± 0.48 nM. In the case of `Cn1ncc2cc(-c3cnc(N)c(Cl)c3N3CCC4(CCNC4=O)CC3)ccc21` [CCT-151921], the EC50 is reported as 2.48 ± 1.63 nM.

These molecules were tested on MCMV-GFP (assay: MCMV-GFP replication assay in MEFs). Details: Murid betaherpesvirus 1, read-out: EC50 MCMV.
Type: cell-based, murine cytomegalovirus
Text: as §3
With `Cc1n[nH]c2ncc(C(=O)N3CCC[C@H]3c3ccc(Cl)cc3)cc12` [MSC-2530818] the EC50 was 1.8 ± 1.99 nM. `CN(C)C(=O)Cn1cc(-c2ccc(-c3cncc4ccccc34)cc2)cn1` [BI-1347] gave an EC50 of 1.57 ± 1.71 nM. Molecule `Cn1ncc2cc(-c3cnc(N)c(Cl)c3N3CCC4(CCNC4=O)CC3)ccc21` [CCT-151921] has an EC50 of 2.65 ± 4.5 nM.
